Biological target: ATP-dependent translocase ABCB1 (Homo sapiens, UniProt P08183)
Assay: TP_TRANSPORTER: increase uptake (Vinblastine: 0.01 uM) in Caco-2 cells
Assay type: functional, cell-based

Chain of ATP-dependent translocase ABCB1 (P08183 whole entry): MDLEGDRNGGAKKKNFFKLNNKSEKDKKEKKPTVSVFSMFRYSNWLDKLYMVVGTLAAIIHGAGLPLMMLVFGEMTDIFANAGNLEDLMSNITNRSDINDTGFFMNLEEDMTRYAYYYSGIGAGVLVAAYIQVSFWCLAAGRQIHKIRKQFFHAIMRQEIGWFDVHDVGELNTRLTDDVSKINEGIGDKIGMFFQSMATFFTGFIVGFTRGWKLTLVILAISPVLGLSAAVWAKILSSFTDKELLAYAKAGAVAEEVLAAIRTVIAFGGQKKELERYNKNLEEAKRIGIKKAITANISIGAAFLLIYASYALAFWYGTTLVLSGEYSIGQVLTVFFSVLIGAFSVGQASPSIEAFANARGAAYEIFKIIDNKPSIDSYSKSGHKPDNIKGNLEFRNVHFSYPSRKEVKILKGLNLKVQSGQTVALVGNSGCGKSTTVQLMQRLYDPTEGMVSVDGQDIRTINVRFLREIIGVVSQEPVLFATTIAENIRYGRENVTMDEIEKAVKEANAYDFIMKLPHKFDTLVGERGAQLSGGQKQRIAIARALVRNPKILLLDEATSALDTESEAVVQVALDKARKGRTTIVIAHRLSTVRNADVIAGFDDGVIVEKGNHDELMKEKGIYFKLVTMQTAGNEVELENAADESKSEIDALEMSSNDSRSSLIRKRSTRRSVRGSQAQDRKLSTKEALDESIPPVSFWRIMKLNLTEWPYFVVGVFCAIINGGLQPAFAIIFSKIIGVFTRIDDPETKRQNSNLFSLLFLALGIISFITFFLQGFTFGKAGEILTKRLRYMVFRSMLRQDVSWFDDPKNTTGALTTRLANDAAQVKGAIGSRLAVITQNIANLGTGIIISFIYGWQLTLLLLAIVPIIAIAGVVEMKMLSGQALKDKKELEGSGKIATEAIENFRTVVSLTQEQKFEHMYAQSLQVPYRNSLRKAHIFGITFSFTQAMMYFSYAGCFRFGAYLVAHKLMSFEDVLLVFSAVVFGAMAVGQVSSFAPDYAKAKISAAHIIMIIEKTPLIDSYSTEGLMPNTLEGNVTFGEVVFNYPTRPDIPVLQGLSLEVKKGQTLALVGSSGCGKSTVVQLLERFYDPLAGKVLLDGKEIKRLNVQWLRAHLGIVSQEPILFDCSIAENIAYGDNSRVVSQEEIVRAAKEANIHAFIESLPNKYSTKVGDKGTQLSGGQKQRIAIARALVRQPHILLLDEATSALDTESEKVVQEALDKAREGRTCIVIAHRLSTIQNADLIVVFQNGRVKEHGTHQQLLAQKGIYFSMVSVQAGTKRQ

Row | EC200 | Compound
1 | 0.04 µM | C/C(=C\COc1c2ccoc2cc2oc(=O)ccc12)CC[C@@H](O)C(C)(C)O
2 | 0.035 µM | C/C(=C\COc1c2ccoc2cc2oc(=O)ccc12)CCC(OC(C)(C)C(O)CC/C(C)=C/COc1c2ccoc2cc2oc(=O)ccc12)C(C)(C)O (stereo not given) [FC726]
3 | 0.035 µM | CC(C)=CCC/C(C)=C/COc1c2ccoc2cc2oc(=O)ccc12 [BERGAMOTTIN]

Row | Compound | EC200
4 | O=c1ccc2c(O)c3ccoc3cc2o1 [BERGAPTOL] | 0.3 µM
5 | COc1c2ccoc2cc2oc(=O)ccc12 [BERGAPTEN] | 0.05 µM

Reference: ChEMBL document CHEMBL2074502, “Effect of furanocoumarin derivatives in grapefruit juice on the uptake of vinblastine by Caco-2 cells and on the activity of cytochrome P450 3A4” (Br J Pharmacol, 2000)
